Measured values: patent US9458181B2, “Cathepsin cysteine protease inhibitors” (Merck Sharp & Dohme Corp., priority 2013, dated 2016)

Assays:
[1] = target: T1, human cathepsin F (Homo sapiens, UniProt Q9UBX1); assay: Cathepsin F assay (hCat F); type: biochemical; details: human cathepsin F 10 nM, Z-Phe-Arg-AMC 8 μM, pH 5.5, 15 min preincubation; read-out: hCat F IP
T1 sequence (Q9UBX1 271-484): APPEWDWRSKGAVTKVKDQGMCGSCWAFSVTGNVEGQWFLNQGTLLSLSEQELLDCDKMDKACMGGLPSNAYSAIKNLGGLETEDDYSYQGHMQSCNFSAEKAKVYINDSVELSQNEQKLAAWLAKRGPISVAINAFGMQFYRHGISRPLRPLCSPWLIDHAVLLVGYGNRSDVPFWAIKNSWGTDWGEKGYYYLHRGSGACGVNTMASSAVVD
Method: Cathepsin F assay (hCat F)
(§1) Serial dilutions (⅓) from 500 μM down to 0.025 μM of test compounds were prepared in dimethyl sulfoxide (DMSO). Then 0.5 μL of DMSO from each dilution were added to 18.75 μL of assay buffer (MES, 50 mM (pH 5.5); EDTA, 2.5 mM; DTT, 2.5 mM and 10% DMSO) containing human cathepsin F (10 nM) in assay buffer solution. The assay solutions were mixed for 5-10 seconds on a shaker plate and incubated for 15 minutes at room temperature. Z-Phe-Arg-AMC (8 μM) in 6.25 μL of assay buffer was added to the assay solutions. Hydrolysis of the coumarin leaving group (AMC) was followed by spectrofluorometry (Exp, =360 nm; EmX=460 nm) for 20 minutes. Percent of inhibition were calculated by fitting experimental values to standard mathematical model for dose response curve.

[2] = target: human cathepsin K (UniProt P43236); assay: Cathepsin K Assay (hrbCat K); type: biochemical; details: human cathepsin K 0.4 nM, Z-Leu-Arg-AMC 8 μM, pH 5.5, 15 min preincubation; read-out: hrbCat K IP
Method: Cathepsin K Assay (hrbCat K)
as §1, with “K (0.4” for “F (10”, “Z-Leu-Arg-AMC” for “Z-Phe-Arg-AMC”, “(Exλ=360” for “(Exp, =360”, “Emλ=460” for “EmX=460”, “30” for “20”

CC1(c2nc(-c3ccc(N4CCS(=O)(=O)CC4)cc3)c([C@@H]3CCCC[C@H]3C(=O)NC3(C#N)CC3)o2)CCOCC1 [Example 99, (1R,2R)-N-(1-cyanocyclopropyl)-2-(4-(4-(1,1-dioxidothiomorpholino)phenyl)-2-(4-methyltetrahydro-2H-pyran-4-yl)oxazol-5-yl)cyclohexanecarboxamide]
IC50 [1]: 2230 nM | IC50 [2]: 1.89 nM

CC(C)(C)OC(=O)Nc1ccc(-c2nc(-c3ccc(F)cc3)oc2[C@@H]2CCCC[C@H]2C(=O)NC2(C#N)CC2)cc1 [Example 49, tert-butyl (4-(5-((1R,2R)-2-((1-cyanocyclopropyl)carbamoyl)cyclohexyl)-2-(4-fluorophenyl)oxazol-4-yl)phenyl)carbamate]
IC50 [1]: 1340 nM | IC50 [2]: 4.01 nM

N#CC1(NC(=O)[C@@H]2CCCC[C@H]2c2oc(-c3ccc(F)c(Cl)c3)nc2-c2ccc(N3CCS(=O)(=O)CC3)cc2)CC1 [Example 36, (1R,2R)-2-(2-(3-chloro-4-fluorophenyl)-4-(4-(1,1-dioxidothiomorpholino)phenyl)oxazol-5-yl)-N-(1-cyanocyclopropyl) cyclohexanecarboxamide]
IC50 [1]: 382 nM | IC50 [2]: 0.94 nM

N#CC1(NC(=O)[C@@H]2CCCC[C@H]2c2oc(-c3cncc(C(F)(F)F)c3)nc2-c2ccc(N3CCS(=O)(=O)CC3)cc2)CC1 [Example 88, (1R,2R)-N-(1-cyanocyclopropyl)-2-(4-(4-(1,1-dioxidothiomorpholino)phenyl)-2-(5-(trifluoromethyl)pyridin-3-yl)oxazol-5-yl)cyclohexanecarboxamide]
IC50 [1]: 2380 nM | IC50 [2]: 2.21 nM

N#Cc1ccccc1-c1nc(-c2ccc(N3CCS(=O)(=O)CC3)cc2)c([C@@H]2CCCC[C@H]2C(=O)NC2(C#N)CC2)o1 [Example 105, (1R,2R)-N-(1-cyanocyclopropyl)-2-(2-(2-cyanophenyl)-4-(4-(1,1-dioxidothiomorpholino)phenyl)oxazol-5-yl)cyclohexanecarboxamide]
IC50 [1]: 1920 nM | IC50 [2]: 2.4 nM

C[C@@H]1CC(F)(F)CC[C@@H]1c1nc(-c2ccc(N3CCS(=O)(=O)CC3)cc2)c([C@@H]2CCCC[C@H]2C(=O)NC2(C#N)CC2)o1 [Example 107, (1R,2R)-N-(1-cyanocyclopropyl)-2-(2-((1S,2R)-4,4-difluoro-2-methylcyclohexyl)-4-(4-(1,1-dioxidothiomorpholino)phenyl)oxazol-5-yl)cyclohexanecarboxamide]
IC50 [1]: 1290 nM | IC50 [2]: 2.31 nM

Cc1ncc(-c2nc(-c3ccc(N4CCS(=O)(=O)CC4)cc3)c([C@@H]3CCCC[C@H]3C(=O)NC3(C#N)CC3)o2)cn1 [Example 103, (1R,2R)-N-(1-cyanocyclopropyl)-2-(4-(4-(1,1-dioxidothiomorpholino)phenyl)-2-(2-methylpyrimidin-5-yl)oxazol-5-yl)cyclohexanecarboxamide]
IC50 [1]: 1840 nM | IC50 [2]: 1.35 nM

C[C@H]1CC(F)(F)CC[C@@H]1c1nc(-c2ccc(N3CCS(=O)(=O)CC3)cc2)c([C@@H]2CCCC[C@H]2C(=O)NC2(C#N)CC2)o1 [Example 108, (1R,2R)-N-(1-cyanocyclopropyl)-2-(2-((1S,2S)-4,4-difluoro-2-methylcyclohexyl)-4-(4-(1,1-dioxidothiomorpholino)phenyl)oxazol-5-yl)cyclohexanecarboxamide]
IC50 [1]: 1390 nM | IC50 [2]: 2.08 nM

N#CC1(NC(=O)[C@@H]2CC3CC3C[C@H]2c2oc(-c3ccc(F)cn3)nc2-c2ccc(N3CCS(=O)(=O)CC3)cc2)CC1 (single isomer, unassigned) [Example 8, (1S,3R,4R,6R or 1R,3R,4R,6S)-N-(1-Cyanocyclopropyl)-4-(4-(4-(1,1-dioxidothiomorpholino)phenyl)-2-(5-fluoropyridin-2-yl)oxazol-5-yl)bicyclo[4.1.0]heptane-3-carboxamidc]
IC50 [1]: 1620 nM | IC50 [2]: 9.56 nM

N#CC1(NC(=O)[C@@H]2CCCC[C@H]2c2oc(-c3cncc(F)c3)nc2-c2ccc(N3CCS(=O)(=O)CC3)cc2)CC1 [Example 33, (1R,2R)-N-(1-cyanocyclopropyl)-2-(4-(4-(1,1-dioxidothiomorpholino)phenyl)-2-(5-fluoropyridin-3-yl)oxazol-5-yl)cyclohexanecarboxamide]
IC50 [1]: 1320 nM | IC50 [2]: 1.99 nM

N#CC1(NC(=O)[C@@H]2CCCC[C@H]2c2oc(-c3ccc(F)cc3)nc2-c2ccc(N3CCS(=O)(=O)CC3)cc2)CC1 [Example 7, (1R,2R)—N-(1-Cyanocyclopropyl)-2-{4-[4-(1,1-dioxo-1λ^6-thiomorpholin-4-yl)phenyl]-2-(4-fluorophenyl)-1,3-oxazol-5-yl}cyclohexanecarboxamide]
IC50 [1]: 840 nM | IC50 [2]: 1.49 nM

CC(C#N)NC(=O)[C@@H]1CCCC[C@H]1c1oc(-c2ccc(F)cc2)nc1-c1ccc(N2CCS(=O)(=O)CC2)cc1 (single isomer, unassigned) [Example 122, (1R,2R)-N-((S or R)-1-cyanoethyl)-2-(4-(4-(1,1-dioxidothiomorpholino)phenyl)-2-(4-fluorophenyl)oxazol-5-yl)cyclohexanecarboxamide]
IC50 [1]: 198 nM | IC50 [2]: 0.8 nM

Cc1nc(-c2ccc(N3CCS(=O)(=O)CC3)cc2)c([C@@H]2CCCC[C@H]2C(=O)NC2(C#N)CC2)s1 [Example 54, (1R,2R)-N-(1-cyanocyclopropyl)-2-(4-(4-(1,1-dioxidothiomorpholino)phenyl)-2-methylthiazol-5-yl)cyclohexanecarboxamide]
IC50 [1]: 5310 nM | IC50 [2]: 2.31 nM

N#CC1(NC(=O)[C@@H]2CCCC[C@H]2c2oc(-c3ccc(F)cc3)nc2-c2ccc(N3CCS(=O)(=O)CC3)c(Br)c2)CC1 [Example 102, (1R,2R)-2-(4-(3-bromo-4-(1,1-dioxidothiomorpholino)phenyl)-2-(4-fluorophenyl)oxazol-5-yl)-N-(1-cyanocyclopropyl) cyclohexanecarboxamide]
IC50 [1]: 416 nM | IC50 [2]: 54.5 nM

CC1(c2nc(-c3ccc(N4CCS(=O)(=O)CC4)cc3)c([C@@H]3CCCC[C@H]3C(=O)NC3(C#N)CC3)o2)CC[Si](C)(C)CC1 [Example 53, (1R,2R)-N-(1-cyanocyclopropyl)-2-(4-(4-(1,1-dioxidothiomorpholino)phenyl)-2-(1,1,4-trimethylsilinan-4-yl)oxazol-5-yl)cyclohexanecarboxamide]
IC50 [1]: 582 nM | IC50 [2]: 1.93 nM

N#CC1(NC(=O)[C@@H]2CC(F)(F)CC[C@H]2c2oc(C(F)(F)C(F)(F)F)nc2-c2ccc(C(=O)N3CCOCC3)cc2)CC1 [Example 119, (1R,2R)-N-(1-cyanocyclopropyl)-5,5-difluoro-2-(4-(4-(morpholine-4-carbonyl)phenyl)-2-(perfluoroethyl)oxazol-5-yl)cyclohexanecarboxamide]
IC50 [1]: 306 nM | IC50 [2]: 1.04 nM

CS(=O)(=O)C1CN(c2ccc(-c3nc(C(F)(F)C(F)(F)F)oc3[C@@H]3CCCC[C@H]3C(=O)NC3(C#N)CC3)cc2)C1 [Example 23, (1R,2R)-N-(1-cyanocyclopropyl)-2-(4-(4-(3-(methylsulfonyl)azetidin-1-yl)phenyl)-2-(perfluoroethyl)oxazol-5-yl)cyclohexanecarboxamide]
IC50 [1]: 383 nM | IC50 [2]: 0.62 nM

CC(C)(C)c1nc(-c2ccc(N3CCS(=O)(=O)CC3)cc2)c([C@@H]2CCC(F)(F)C[C@H]2C(=O)NC2(C#N)CC2)o1 [Example 19, (1R,2R)-2-(2-(tert-butyl)-4-(4-(1,1-dioxidothiomorpholino)phenyl)oxazol-5-yl)-N-(1-cyanocyclopropyl)-5,5-difluorocyclohexane-carboxamide]
IC50 [1]: 81 nM | IC50 [2]: 0.54 nM

COc1ccc(-c2nc(-c3ccc(N4CCS(=O)(=O)CC4)cc3)c([C@@H]3CCCC[C@H]3C(=O)NC3(C#N)CC3)o2)cc1 [Example 70]
IC50 [1]: 734 nM | IC50 [2]: 1.84 nM

CC1CC1(C#N)NC(=O)[C@@H]1CCCC[C@H]1c1oc(-c2ccc(F)cc2)nc1-c1ccc(N2CCS(=O)(=O)CC2)cc1 (single isomer, unassigned) [Example 134, (1R,2R)-N-((2S or 2R)-1-cyano-2-methylcyclopropyl)-2-(4-(4-(1,1-dioxidothiomorpholino)phenyl)-2-(4-fluorophenyl)oxazol-5-yl)cyclohexanecarboxamide]
IC50 [1]: ≥ 10000 nM | IC50 [2]: 2900 nM

N#CC1(NC(=O)[C@@H]2CCCC[C@H]2c2oc(-c3ccc(Cl)cc3F)nc2-c2ccc(N3CCS(=O)(=O)CC3)cc2)CC1 [Example 94, (1R,2R)-2-(2-(4-chloro-2-fluorophenyl)-4-(4-(1,1-dioxidothiomorpholino)phenyl)oxazol-5-yl)-N-(1-cyanocyclopropyl) cyclohexanecarboxamide]
IC50 [1]: 380 nM | IC50 [2]: 1.2 nM
